The test system of one test is PKC. Briefly: Cell-based assay of PKC inhibition (PKC substrate phosphorylation in THP-1 cells). As to conditions: human THP-1 cells, 1.5 h compound, then 20 nM PMA for 30 min; read-out: absolute IC50, PKC substrate phosphorylation. Here is the method:
The purpose of this assay is to test the inhibitory effects of a test compound on PKC in a cell-based system by measuring the level of PKC substrate phosphorylation.
Staurosporin may be used as a positive control. It is prepared in DMSO to make up a […] solution and then serially diluted in plain RPMI 1640 culture medium (10 μM-0.0005 μM) to obtain a ten-point dilution curve. Test compounds are prepared in the same manner.
THP-1 cells (human macrophage cell line) are obtained from ATCC (ATCC TIB-202 lot 4028542). The cells are cultured in 96-well plates coated with poly-d-lysine (Becton Dickinson) with seeding density of 4000 cells/well in RPMI 1640 culture medium (Gibco) with 1% fetal bovine serum (Gibco). […]
After the incubation, the cells are first fixed in the Prefer fixative (ANATECH LTD) for 30 min at room temperature. […] Plates are scanned with an ACUMEN EXPLORER™ Laser-scanning fluorescence microplate cytometer (TTP LABTECH LTD), with 488 nm laser excitation to detect emission fluorescence at 655 nm-705 nm (emission of DNA bound propidium iodide) for cell counting/well, and emission of 505 nm-530 nm fluorescence of antibody binding to phosphorylated PKC substrates in cells. The main assay output is a ratio of total fluorescence of phosphorylated PKC substrates to total cell number (ratio=total intensity/total cell number). […]

In test [1] the test system is persons with type 2 diabetes and nephropathy. As to conditions: in combination with an ACE inhibitor, ARB, or both; cited from earlier work.

Each structure is given as a SMILES string.

With `CN[C@@H]1C[C@H]2O[C@@](C)([C@@H]1OC)n1c3ccccc3c3c4c(c5c6ccccc6n2c5c31)C(=O)NC4` [Staurosporin, reference compound], the IC50 (in general, the concentration at which inhibition is half-maximal) with PKC is […].
With `CN(C)C[C@@H]1CCn2cc(c3ccccc32)C2=C(C(=O)NC2=O)c2cn(c3ccccc23)CCO1` [ruboxistaurin], the “effects on albuminuria and renal function” value in test [1] was “favorable effects on albuminuria and renal function”.

Source of the values: US20170246166A1, “1,2-BENZOTHIAZOLE COMPOUNDS FOR THE TREATMENT OF KIDNEY DISORDERS” (priority 2014, published 2017).
